Columns and labels:
[1] = molecular target: T1, HCMV polymerase (Human cytomegalovirus, UniProt P08546); experiment: HCMV polymerase scintillation proximity assay (modified version); type: biochemical; details: at a concentration of 20 μM; read-out: percent inhibition of the viral polymerase, HCMV
T1 construct: made in house; host or cells: recombinant baculovirus-infected SF-9 cells
Experimental: The HCMV polymerase assay is performed using a scintillation proximity assay (SPA) as described in several references, such as N. D. Cook, et al., Pharmaceutical Manufacturing International, pages 49-53 (1992); K. Takeuchi, Laboratory Practice, September issue (1992); U.S. Pat. No. 4,568,649 (1986); which are incorporated by reference herein. Reactions are performed in 96-well plates. The assay is conducted in 100 μl volume with 5.4 mM HEPES (pH 7.5), 11.7 mM KCl, 4.5 mM MgCl2, 0.36 mg/ml BSA, and 90 nM ^3H-dTTP. Assays are run with and without CHAPS, (3-[(3-cholamidopropyl)-dimethylammonio]-1-propane-sulfonate) at a final concentration of 2 mM. HCMV polymerase is diluted in enzyme dilution buffer containing 50% glycerol, 250 mM NaCl, 10 mM HEPES (pH 7.5), 100 μg/ml BSA, and 0.01% sodium azide. The HCMV polymerase, which is expressed in recombinant baculovirus-infected SF-9 cells and purified according to literature procedures, is added at 10% (or 10 μl) of the final reaction volume, i.e., 100 μl. Compounds are diluted in 50% DMSO and 10 μl are added to each well. Control wells contain an equivalent concentration of DMSO. Unless noted otherwise, reactions are initiated via the addition of 6 nM biotinylated poly(dA)-oligo(dT) template/primer to reaction mixtures containing the enzyme, substrate, and compounds of interest. Plates are incubated in a 25° C. or 37° C. H2O bath and terminated via the addition of 40 μl/reaction of 0.5 M EDTA (pH 8) per well. Reactions are terminated within the time-frame during which substrate incorporation is linear and varied depending upon the enzyme and conditions used, i.e., 30 min. for HCMV polymerase. Ten μl of streptavidin-SPA beads (20 mg/ml in PBS/10% glycerol) are added following termination of the reaction. Plates are incubated 10 min. at 37° C., then equilibrated to room temperature, and counted on a Packard Topcount. Linear regressions are performed and IC50's are calculated using computer software.
A modified version of the above HCMV polymerase assay is performed as described above, but with the following changes: Compounds are diluted in 100% DMSO until final dilution into assay buffer. In the previous assay, compounds are diluted in 50% DMSO. 4.5 mM dithiotherotol (DTT) is added to the polymerase buffer. […] All results are listed as the percent inhibition of the viral polymerase at a concentration of 20 μM. In Table 1, the term “nd” refers to activity data not determined.

[2] = molecular target: HSV polymerase (Human herpesvirus 1, UniProt P04293); experiment: HSV polymerase assay (Table 1, viral polymerase inhibition); type: biochemical; details: at a concentration of 20 μM; read-out: percent inhibition of the viral polymerase, HSV
[3] = molecular target: VZV polymerase (Varicella-zoster virus, UniProt P09252); experiment: VZV polymerase assay (Table 1, viral polymerase inhibition); type: biochemical; details: at a concentration of 20 μM; read-out: percent inhibition of the viral polymerase, VZV
Experimental: The HCMV polymerase assay is performed using a scintillation proximity assay (SPA) as described in several references, such as N. D. Cook, et al., Pharmaceutical Manufacturing International, pages 49-53 (1992); K. Takeuchi, Laboratory Practice, September issue (1992); U.S. Pat. No. 4,568,649 (1986); which are incorporated by reference herein. Reactions are performed in 96-well plates. The assay is conducted in 100 μl volume with 5.4 mM HEPES (pH 7.5), 11.7 mM KCl, 4.5 mM MgCl2, 0.36 mg/ml BSA, and 90 nM ^3H-dTTP. Assays are run with and without CHAPS, (3-[(3-cholamidopropyl)-dimethylammonio]-1-propane-sulfonate) at a final concentration of 2 mM. HCMV polymerase is diluted in enzyme dilution buffer containing 50% glycerol, 250 mM NaCl, 10 mM HEPES (pH 7.5), 100 μg/ml BSA, and 0.01% sodium azide. […] Plates are incubated 10 min. at 37° C., then equilibrated to room temperature, and counted on a Packard Topcount. Linear regressions are performed and IC50's are calculated using computer software.
A modified version of the above HCMV polymerase assay is performed as described above, but with the following changes: Compounds are diluted in 100% DMSO until final dilution into assay buffer. […] In Table 1, the term “nd” refers to activity data not determined.

T1 sequence (P08546 whole entry): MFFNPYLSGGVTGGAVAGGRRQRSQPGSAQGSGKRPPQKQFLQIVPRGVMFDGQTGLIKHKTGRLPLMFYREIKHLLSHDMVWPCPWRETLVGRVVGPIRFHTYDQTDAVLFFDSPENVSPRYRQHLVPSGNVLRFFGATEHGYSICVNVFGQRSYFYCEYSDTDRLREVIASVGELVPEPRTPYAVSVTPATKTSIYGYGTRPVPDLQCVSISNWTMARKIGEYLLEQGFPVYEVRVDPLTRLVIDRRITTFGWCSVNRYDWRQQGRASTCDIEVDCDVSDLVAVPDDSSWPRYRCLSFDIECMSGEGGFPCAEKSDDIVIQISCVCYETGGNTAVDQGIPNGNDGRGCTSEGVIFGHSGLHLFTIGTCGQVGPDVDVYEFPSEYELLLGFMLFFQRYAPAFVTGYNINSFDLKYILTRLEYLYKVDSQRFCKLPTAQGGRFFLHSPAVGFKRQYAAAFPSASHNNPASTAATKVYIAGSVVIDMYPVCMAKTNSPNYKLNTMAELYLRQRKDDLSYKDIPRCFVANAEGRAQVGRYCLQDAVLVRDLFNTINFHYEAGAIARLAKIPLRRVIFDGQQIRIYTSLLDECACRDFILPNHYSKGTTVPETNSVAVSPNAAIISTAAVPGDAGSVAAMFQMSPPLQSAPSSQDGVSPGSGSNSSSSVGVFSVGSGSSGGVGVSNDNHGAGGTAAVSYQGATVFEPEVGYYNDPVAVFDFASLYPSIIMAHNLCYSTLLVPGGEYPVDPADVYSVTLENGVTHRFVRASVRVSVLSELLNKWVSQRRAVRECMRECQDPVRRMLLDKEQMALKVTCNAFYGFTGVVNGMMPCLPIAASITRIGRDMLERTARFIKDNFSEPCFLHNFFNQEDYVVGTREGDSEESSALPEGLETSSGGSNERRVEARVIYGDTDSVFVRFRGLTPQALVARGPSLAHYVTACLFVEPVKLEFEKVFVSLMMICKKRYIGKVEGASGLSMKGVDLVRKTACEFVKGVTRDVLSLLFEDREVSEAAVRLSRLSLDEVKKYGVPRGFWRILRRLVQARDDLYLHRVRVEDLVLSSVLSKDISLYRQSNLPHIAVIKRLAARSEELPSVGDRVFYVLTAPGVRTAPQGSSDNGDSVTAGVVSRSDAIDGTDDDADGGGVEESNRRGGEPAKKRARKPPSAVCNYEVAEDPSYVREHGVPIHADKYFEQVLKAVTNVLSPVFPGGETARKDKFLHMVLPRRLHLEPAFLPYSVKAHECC
Chain of VZV polymerase (P09252 whole entry): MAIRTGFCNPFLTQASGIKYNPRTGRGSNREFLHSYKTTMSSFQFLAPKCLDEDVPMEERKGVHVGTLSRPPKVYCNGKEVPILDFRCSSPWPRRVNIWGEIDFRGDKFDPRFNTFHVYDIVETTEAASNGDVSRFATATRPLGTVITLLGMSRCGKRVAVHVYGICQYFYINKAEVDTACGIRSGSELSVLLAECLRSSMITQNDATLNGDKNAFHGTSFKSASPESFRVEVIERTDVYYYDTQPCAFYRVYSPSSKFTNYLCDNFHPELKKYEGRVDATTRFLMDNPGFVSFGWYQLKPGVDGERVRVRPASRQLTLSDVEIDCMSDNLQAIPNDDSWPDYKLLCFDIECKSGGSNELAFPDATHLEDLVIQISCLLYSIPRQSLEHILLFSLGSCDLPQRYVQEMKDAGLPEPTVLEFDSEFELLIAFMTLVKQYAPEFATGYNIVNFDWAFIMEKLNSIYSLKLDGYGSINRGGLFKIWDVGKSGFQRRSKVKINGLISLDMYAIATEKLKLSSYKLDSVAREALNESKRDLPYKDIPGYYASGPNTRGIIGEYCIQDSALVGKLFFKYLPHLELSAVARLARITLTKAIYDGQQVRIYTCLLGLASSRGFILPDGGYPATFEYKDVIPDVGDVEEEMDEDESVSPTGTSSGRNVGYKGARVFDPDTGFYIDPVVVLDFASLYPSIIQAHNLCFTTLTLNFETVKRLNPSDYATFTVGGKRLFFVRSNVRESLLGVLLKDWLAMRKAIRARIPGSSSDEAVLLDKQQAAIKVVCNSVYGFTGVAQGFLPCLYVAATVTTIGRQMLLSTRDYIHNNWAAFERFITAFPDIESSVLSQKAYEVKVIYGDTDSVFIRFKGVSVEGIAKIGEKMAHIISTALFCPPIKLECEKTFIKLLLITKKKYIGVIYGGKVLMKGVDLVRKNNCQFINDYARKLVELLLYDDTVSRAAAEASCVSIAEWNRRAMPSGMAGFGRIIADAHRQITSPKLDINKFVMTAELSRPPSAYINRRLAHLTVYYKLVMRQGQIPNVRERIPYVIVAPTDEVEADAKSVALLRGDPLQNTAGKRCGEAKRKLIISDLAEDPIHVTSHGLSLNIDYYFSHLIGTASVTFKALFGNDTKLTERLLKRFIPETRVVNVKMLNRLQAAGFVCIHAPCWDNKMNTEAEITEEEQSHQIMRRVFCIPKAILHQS
Chain of HSV polymerase (P04293 whole entry): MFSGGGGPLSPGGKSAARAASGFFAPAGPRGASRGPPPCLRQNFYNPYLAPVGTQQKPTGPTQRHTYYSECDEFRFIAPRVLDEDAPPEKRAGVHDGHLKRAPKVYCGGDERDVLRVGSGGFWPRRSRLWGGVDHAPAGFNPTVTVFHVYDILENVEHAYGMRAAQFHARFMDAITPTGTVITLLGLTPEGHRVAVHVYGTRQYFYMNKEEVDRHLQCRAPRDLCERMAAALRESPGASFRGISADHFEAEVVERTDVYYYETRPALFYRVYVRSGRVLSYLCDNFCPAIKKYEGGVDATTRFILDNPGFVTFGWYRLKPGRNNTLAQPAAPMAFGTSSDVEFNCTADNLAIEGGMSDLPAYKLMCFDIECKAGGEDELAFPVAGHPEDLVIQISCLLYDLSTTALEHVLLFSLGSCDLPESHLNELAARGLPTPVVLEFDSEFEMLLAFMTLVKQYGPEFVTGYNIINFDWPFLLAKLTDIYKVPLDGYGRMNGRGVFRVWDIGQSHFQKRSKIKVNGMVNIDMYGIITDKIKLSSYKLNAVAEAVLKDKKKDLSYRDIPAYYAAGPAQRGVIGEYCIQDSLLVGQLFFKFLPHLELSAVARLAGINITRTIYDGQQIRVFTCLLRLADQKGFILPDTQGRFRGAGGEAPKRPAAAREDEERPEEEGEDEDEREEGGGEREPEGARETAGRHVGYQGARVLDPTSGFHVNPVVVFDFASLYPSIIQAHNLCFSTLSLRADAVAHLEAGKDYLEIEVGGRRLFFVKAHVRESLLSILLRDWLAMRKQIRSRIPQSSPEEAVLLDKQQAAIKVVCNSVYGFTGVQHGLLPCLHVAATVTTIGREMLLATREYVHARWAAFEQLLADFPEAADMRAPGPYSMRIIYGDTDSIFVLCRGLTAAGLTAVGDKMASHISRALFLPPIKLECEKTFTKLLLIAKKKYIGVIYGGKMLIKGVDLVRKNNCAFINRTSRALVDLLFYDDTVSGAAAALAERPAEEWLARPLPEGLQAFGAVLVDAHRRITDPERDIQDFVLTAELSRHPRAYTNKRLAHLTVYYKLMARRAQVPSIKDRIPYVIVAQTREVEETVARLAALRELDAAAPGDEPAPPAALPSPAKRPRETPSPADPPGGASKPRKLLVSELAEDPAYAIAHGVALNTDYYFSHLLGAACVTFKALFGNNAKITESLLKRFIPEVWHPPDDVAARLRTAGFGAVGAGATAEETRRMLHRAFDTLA

Row | inhibition at 20 µM [1] [%] | melting point | inhibition at 20 µM [2] [%] | inhibition at 20 µM [3] [%] | Compound
1 | 90 | 269 to 271 °C | 20.8 | 10.1 | O=C(NCc1ccc(Cl)cc1)c1n[nH]c2ccccc2c1=O [Comp. 1, N-(4-chlorobenzyl)-4-oxo-1,4-dihydro-3-cinnolinecarboxamide]
2 | > 100 | 307 to 308 °C |  |  | O=C(NCc1ccc(Cl)cc1)c1nnc2ccc(I)cc2c1O [Comp. 2, N-(4-chlorobenzyl)-4-hydroxy-6-iodo-3-cinnolinecarboxamide]
3 | 50 | 308 to 310 °C |  |  | COC(=O)c1ccc2nnc(C(=O)NCc3ccc(Cl)cc3)c(O)c2c1 [Example 3, Methyl 3-{[(4-chlorobenzyl)amino]carbonyl]-4-hydroxy-6-cinnolinecarboxylate]
4 | 51 | 296 to 298 °C |  |  | O=C(NCc1ccc(Cl)cc1)c1nnc2ccc(CO)cc2c1O [Example 4, N-(4-chlorobenzyl)-4-hydroxy-6-(hydroxymethyl)-3-cinnolinecarboxamide]
5 |  | 277 to 280 °C (dec.) |  |  | O=C(NCc1ccc(Cl)cc1)c1nnc2ccc(CN3CCOCC3)cc2c1O [Example 5, N-(4-chlorobenzyl)-4-hydroxy-6-(morpholinylmethyl)-3-cinnolinecarboxylate]

Reference: patent publication US6458788B1, “4-hydroxycinnoline-3-carboxyamides as antiviral agents” (Pharmacia & Upjohn Company, priority 2000, dated 2002)
